Measured values as given in patent publication US5935952A, “Quinolone- or naphthylidone-carboxylic acid derivates or their salts” (Toyama Chemical Co., LTD., priority 1994, dated 1999).
In brackets after ≈: the same amount, converted by molar mass. Where two headings read alike, the source gives them in different places.

How the values were obtained:
Type in all cases: cell-based
S. aureus FDA 209P = experiment: Antibacterial activity (MIC, agar dilution, standard method of Japan Society of Chemotherapy) against S. aureus FDA 209P; details: Staphylococcus aureus, FDA209P
Description: (§1) According to the standard method of Japan Society of Chemotherapy [CHEMOTHERAPY, vol.

S. aureus F-137 = experiment: Antibacterial activity (MIC, agar dilution, standard method of Japan Society of Chemotherapy) against S. aureus F-137*; details: Staphylococcus aureus, F137; S. aureus F-137, β-lactamase-producing bacteria; Mueller Hinton agar, 37° C., 20 hours, 10^6 cells/plate
Description: as §1
*: β-lactamase-producing bacteria

S. aureus F-597 = experiment: Antibacterial activity (MIC, agar dilution, standard method of Japan Society of Chemotherapy) against S. aureus F-597**; details: Staphylococcus aureus; S. aureus F-597, MRSA (methicillin-resistant S. aureus); Mueller Hinton agar, 37° C., 20 hours, 10^6 cells/plate
Description: as §1
**: MRSA (methicillin-resistant S. aureus)

E. coli NIHJ JC-2 = experiment: Antibacterial activity (MIC, agar dilution, standard method of Japan Society of Chemotherapy) against E. coli NIHJ JC-2; details: Escherichia coli
Description: as §1

MIC (S. aureus FDA 209P; S. aureus FDA 209P, Mueller Hinton agar, 37° C., 20 hours, 10^6 cells/plate, read-out: MIC) [µg/mL]	MIC (S. aureus F-137) [µg/mL]	MIC (S. aureus F-597) [µg/mL]	MIC (E. coli NIHJ JC-2; NIHJJC2, E. coli NIHJ JC-2, Mueller Hinton agar, 37° C., 20 hours, 10^6 cells/plate, read-out: MIC) [µg/mL]	SMILES	MIC (S. aureus FDA 209P; 20 h) [µg/mL]	MIC (E. coli NIHJ JC-2; NIHJJC2, 20 h) [µg/mL]
≤ 0.05	≤ 0.05	≤ 0.05	≤ 0.05	Cc1c(-c2ccc3c(c2)CNC3)c(F)cc2c(=O)c(C(=O)O)cn(C3CC3)c12 [Compound A, 1-cyclopropyl-6-fluoro-7-(isoindolin-5-yl)-8-methyl-1,4-dihydro-4-oxoquinoline-3-carboxylic acid]	–	–
–	–	–	–	O=C(O)c1cn(C2CC2)c2cc(N3CCNCC3)c(F)cc2c1=O [Compound B, 1-cyclopropyl-6-fluoro-7-(1-piperazinyl)-1,4-dihydro-4-oxoquinoline-3-carboxylic acid, reference compound]	0.2 (≈ 0.604 µM)	≤ 0.05
